Test results published in the NIST ThermoML archive (doi:10.1016/j.fluid.2011.11.026).

Conditions: Liquid, Closed cell (Static) method

FC(F)(F)C(F)(F)C(F)(F)C(F)(F)F [decafluorobutane]
Conditions	vapor or sublimation pressure [kPa]
263.15 K	72.7
268.12 K	89.6
273.09 K	109.4
278 K	132.4
282.99 K	159
287.91 K	189.3
292.97 K	225.4
297.95 K	265.3
302.9 K	310.2
308.21 K	364.3
312.88 K	417.8
317.88 K	481.2
323.22 K	556.4
328.15 K	633.7
332.91 K	716.1
337.93 K	811
342.91 K	913
347.93 K	1025.8
352.92 K	1149.2
357.1 K	1261.3
363.13 K	1437.8
368.03 K	1594.1
373.25 K	1775.9
376.88 K	1912.1
379.05 K	1997.7

COC [dimethyl ether]
Conditions	vapor or sublimation pressure [kPa]
296.78 K	571.9
303.46 K	690.2
308.54 K	793.1
312.26 K	875.3
317.17 K	993.3
322.08 K	1122
327.08 K	1265.6
332.09 K	1423.5
337 K	1591.1
341.97 K	1773.8
347 K	1976.2
351.89 K	2187.4
356.91 K	2422.2
361.94 K	2675.2
366.96 K	2946.3
371.84 K	3230.3
376.91 K	3546.4
379.82 K	3739
382.88 K	3950.3
385.83 K	4161.9
387.81 K	4309.6
389.81 K	4463.7
391.86 K	4625.6
393.81 K	4783
395.74 K	4943.6
